The source of these data is patent US5455222A, “1-substituted-5-thiomethylthiocyanato-1H-tetrazoles, compositions containing them and their use as antimicrobial and marine antifouling agents” (The Dow Chemical Company, priority 1994, dated 1995).

≈ marks a conversion by molar mass, not a printed value.

In the first assay the test system is Trichoderma viride (Tv). In words: Minimum inhibitory concentration (MIC), yeast/fungi in malt yeast agar. It counts as cell-based, Trichoderma viride ATCC 8678. To be noted: 30° C., 72 hours for fungi. The method, then: (§1) The minimum inhibitory concentration (MIC) for the compounds listed in Table I is determined for 9 bacteria, using nutrient agar, and 7 yeast and fungi, using malt yeast agar. A one percent solution of the test compound is prepared in a mixture of acetone and water.
(§2) Malt yeast agar is prepared by adding 3 g yeast extract and 45 g malt agar per liter of deionized water. The specific agar is dispensed in 30 mL aliquots into 25×200 mm test tubes, capped and autoclaved for 15 minutes at 115° C.
(§3) The test tubes containing the agar are cooled in a water bath until the temperature of the agar is 48° C. Then, an appropriate amount of the one percent solution of the test compound is added (except in the controls where no compound is added) to the respective test tubes so that the final concentrations are 500, 250, 100, 50, 25, 10, 5, 2.5, 1.0 and zero parts per million of the test compound in the agar, thus having a known concentration of test compound dispersed therein. The contents of the test tubes are then transferred to respective petri plates. After drying for 24 hours, the petri plates containing nutrient agar are inoculated with bacteria and those containing malt yeast agar are inoculated with yeast and fungi.
(§4) The inoculation with the yeast and fungi is accomplished as follows. Cultures of yeast and fungi are incubated for seven days on malt yeast agar at 30° C. These cultures are used to prepare suspensions by the following procedure. A suspension of each organism is prepared by adding 10 mL of sterile saline and 10 microliters of octylphenoxy polyethoxy ethanol to the agar slant of yeast or fungi. The sterile saline/octylphenoxy polyethoxy ethanol solution is then agitated with a sterile swab to suspend the microorganism grown on the slant. Each resulting suspension is diluted into sterile saline (1 part suspension to 9 parts sterile saline). Aliquots of these dilutions are placed in individual wells of Steer's Replicator and petri plates inoculated as previously described. The petri plates are incubated at 30° C. and read after 48 hours for yeast and 72 hours for fungi.
(§5) Table II lists the bacteria, yeast and fungi used in the MIC test described above along with their respective American Type Culture Collection (ATCC) identification numbers.
(§6) In Tables III and IV, the MIC values of the compounds described in Table I as compared to the MIC of a standard commercial preservative (with 1-(3-chloroallyl)-3,5,7-triaza-1-azoniaadamantane chloride as the active agent and referred to in Tables III and IV as "STANDARD I") are set forth for the bacteria organisms and yeast/fungi organisms which are listed in Table II.
In general, MIC refers to the least concentration at which growth counts as inhibited. `CC(C)(C)c1ccc(-n2nnnc2SCSC#N)cc1` [IX, 1-(tertiary-Butylphenyl)-5-thiomethylthiocyanato-1H-tetrazole] had an MIC of 100 µg/mL (≈ 327 µM).

The subject of the next assay is Salmonella choleraesuis (Sc). In words: Minimum inhibitory concentration (MIC), bacteria in nutrient agar. Type of assay: cell-based, Salmonella choleraesuis ATCC 10708. To be noted: Salmonella enterica, nutrient agar pH 6.8, 30° C., 48 hours. The method, then: as §1
(§7) Nutrient agar is prepared at pH 6.8, representing a neutral medium, and at pH 8.2, representing an alkaline medium. The nutrient agars are prepared by adding 23 g of nutrient agar to one liter of deionized water. In addition, the alkaline medium is prepared by adjusting a 0.04M solution of N-[tris-(hydroxymethyl)methyl]glycine buffered deionized water with concentrated sodium hydroxide to a pH of 8.5.
as §3
(§8) The inoculation with bacteria is accomplished by using the following procedure. Twenty-four hour-cultures of each of the bacteria are prepared by incubating the respective bacteria in tubes containing nutrient broth for 24 hours at 30° C. in a shaker. Dilutions of each of the 24 hour-cultures are made so that nine separate suspensions (one for each of the nine test bacteria) are made, each containing 10^8 colony forming units (CFU) per mL of suspension of a particular bacteria. Aliquots of 0.3 mL of each of the bacterial suspensions are used to fill the individual wells of Steer's Replicator. For each microbial suspension, 0.3 mL was used to fill three wells (i.e., three wells of 0.3 mL each) so that for the nine different bacteria, 27 wells are filled. The Steer's Replicator is then used to inoculate both the neutral and alkaline pH nutrient agar petri plates.
(§9) The inoculated petri plates are incubated at 30° C. for 48 hours and then read to determine if the test compound which is incorporated into the agar prevented growth of the respective bacteria.
as §5, §6
Turning to `CC(C)(C)c1ccc(-n2nnnc2SCSC#N)cc1` [IX, 1-(tertiary-Butylphenyl)-5-thiomethylthiocyanato-1H-tetrazole], the MIC came out at 50 µg/mL (≈ 164 µM).

Still in this assay, the particulars now being: Salmonella enterica, nutrient agar pH 8.2, 30° C., 48 hours.
As for `CC(C)(C)c1ccc(-n2nnnc2SCSC#N)cc1` [IX, 1-(tertiary-Butylphenyl)-5-thiomethylthiocyanato-1H-tetrazole], the lowest concentration to inhibit growth (MIC) was 100 µg/mL (≈ 327 µM).

Another assay has as its system Candida albicans (Ca). Kind of assay: Minimum inhibitory concentration (MIC), yeast/fungi in malt yeast agar. It counts as cell-based, Candida albicans ATCC 10231. To be noted: 30° C., 48 hours for yeast. The method, then: as §1, §2, §3, §4, §5, §6
Compound `CC(C)(C)c1ccc(-n2nnnc2SCSC#N)cc1` [IX, 1-(tertiary-Butylphenyl)-5-thiomethylthiocyanato-1H-tetrazole] returned an MIC of 100 µg/mL (≈ 327 µM).

A further assay concerns Escherichia coli (Ec). Kind of assay: Minimum inhibitory concentration (MIC), bacteria in nutrient agar. It counts as cell-based, Escherichia coli ATCC 11229. To be noted: nutrient agar pH 6.8, 30° C., 48 hours. The method, then: as §1, §7, §3, §8, §9, §5, §6
Compound `CC(C)(C)c1ccc(-n2nnnc2SCSC#N)cc1` [IX, 1-(tertiary-Butylphenyl)-5-thiomethylthiocyanato-1H-tetrazole] came in with an MIC of 50 µg/mL (≈ 164 µM).

Staying with this assay, now noted: nutrient agar pH 8.2, 30° C., 48 hours.
For `CC(C)(C)c1ccc(-n2nnnc2SCSC#N)cc1` [IX, 1-(tertiary-Butylphenyl)-5-thiomethylthiocyanato-1H-tetrazole], it took 250 µg/mL (≈ 819 µM) to inhibit growth (MIC).

In another assay the test system is Enterobacter aerogenes (Ea). The assay is described as above. Type of assay: cell-based, Enterobacter aerogenes ATCC 13048. To be noted: Klebsiella aerogenes; nutrient agar pH 6.8, 30° C., 48 hours. The method, then:
as §1, §7, §3, §8, §9, §5, §6
Compound `CC(C)(C)c1ccc(-n2nnnc2SCSC#N)cc1` [IX, 1-(tertiary-Butylphenyl)-5-thiomethylthiocyanato-1H-tetrazole] showed an MIC of 500 µg/mL (≈ 1640 µM).

Still in this assay, the particulars now being: Klebsiella aerogenes; nutrient agar pH 8.2, 30° C., 48 hours.
Compound `CC(C)(C)c1ccc(-n2nnnc2SCSC#N)cc1` [IX, 1-(tertiary-Butylphenyl)-5-thiomethylthiocyanato-1H-tetrazole] displayed an MIC of 500 µg/mL (≈ 1640 µM).

The subject of another assay is Fusarium oxysporum (Fo). In words: Minimum inhibitory concentration (MIC), yeast/fungi in malt yeast agar. Type of assay: cell-based, Fusarium oxysporum ATCC 48112. To be noted: 30° C., 72 hours for fungi. The method, then: as §1, §2, §3, §4, §5, §6
`CC(C)(C)c1ccc(-n2nnnc2SCSC#N)cc1` [IX, 1-(tertiary-Butylphenyl)-5-thiomethylthiocyanato-1H-tetrazole] showed an MIC of 25 µg/mL (≈ 81.9 µM).

Another assay relates to Aureobasidium pullulan (Ap). The description is as above. To be noted: 30° C., read after 48 hours for yeast and 72 hours for fungi. It counts as cell-based, Aureobasidium pullulan ATCC 16622. The method, then: as §1, §2, §3, §4, §5, §6
`CC(C)(C)c1ccc(-n2nnnc2SCSC#N)cc1` [IX, 1-(tertiary-Butylphenyl)-5-thiomethylthiocyanato-1H-tetrazole] showed an MIC of 2.5 µg/mL (≈ 8.19 µM).

For the next assay, the system named is Staphylococcus aureus (Sa). Kind of assay: Minimum inhibitory concentration (MIC), bacteria in nutrient agar. Type of assay: cell-based, Staphylococcus aureus ATCC 6538. To be noted: nutrient agar pH 6.8, 30° C., 48 hours. The method, then: as §1, §7, §3, §8, §9, §5, §6
For the compound `CC(C)(C)c1ccc(-n2nnnc2SCSC#N)cc1` [IX, 1-(tertiary-Butylphenyl)-5-thiomethylthiocyanato-1H-tetrazole], the MIC stood at 50 µg/mL (≈ 164 µM).

Staying with this assay, now noted: nutrient agar pH 8.2, 30° C., 48 hours.
`CC(C)(C)c1ccc(-n2nnnc2SCSC#N)cc1` [IX, 1-(tertiary-Butylphenyl)-5-thiomethylthiocyanato-1H-tetrazole] yielded an MIC of 50 µg/mL (≈ 164 µM).

In the next assay the test system is Proteus vulgaris (Pv). The assay is described as above. It counts as cell-based, Proteus vulgaris ATCC 881. To be noted: nutrient agar pH 6.8, 30° C., 48 hours. The method, then:
as §1, §7, §3, §8, §9, §5, §6
Take `CC(C)(C)c1ccc(-n2nnnc2SCSC#N)cc1` [IX, 1-(tertiary-Butylphenyl)-5-thiomethylthiocyanato-1H-tetrazole]: the MIC was found to be 250 µg/mL (≈ 819 µM).

Staying with this assay, now noted: nutrient agar pH 8.2, 30° C., 48 hours.
`CC(C)(C)c1ccc(-n2nnnc2SCSC#N)cc1` [IX, 1-(tertiary-Butylphenyl)-5-thiomethylthiocyanato-1H-tetrazole] showed an MIC of 100 µg/mL (≈ 327 µM).

The test system of a further assay is Pseudomonas aeruginosa (PRD-10). Described as above. Type of assay: cell-based, Pseudomonas aeruginosa ATCC 15442. To be noted: nutrient agar pH 6.8, 30° C., 48 hours. The method, then: as §1, §7, §3, §8, §9, §5, §6
As for `CC(C)(C)c1ccc(-n2nnnc2SCSC#N)cc1` [IX, 1-(tertiary-Butylphenyl)-5-thiomethylthiocyanato-1H-tetrazole], the MIC stood at 500 µg/mL (≈ 1640 µM).

Staying with this assay, now noted: nutrient agar pH 8.2, 30° C., 48 hours.
For the compound `CC(C)(C)c1ccc(-n2nnnc2SCSC#N)cc1` [IX, 1-(tertiary-Butylphenyl)-5-thiomethylthiocyanato-1H-tetrazole], the MIC turned out to be 500 µg/mL (≈ 1640 µM).

The subject of a further assay is Penicillium chrysogenum (Pc). In words: Minimum inhibitory concentration (MIC), yeast/fungi in malt yeast agar. It counts as cell-based, Penicillium chrysogenum ATCC 9480. To be noted: 30° C., 72 hours for fungi. The method, then: as §1, §2, §3, §4, §5, §6
For the compound `CC(C)(C)c1ccc(-n2nnnc2SCSC#N)cc1` [IX, 1-(tertiary-Butylphenyl)-5-thiomethylthiocyanato-1H-tetrazole], the lowest concentration to inhibit growth (MIC) was 2.5 µg/mL (≈ 8.19 µM).

In another assay the test system is Bacillus subtilis (Bs). Kind of assay: Minimum inhibitory concentration (MIC), bacteria in nutrient agar. It counts as cell-based, Bacillus subtilis ATCC 8473. To be noted: nutrient agar pH 6.8, 30° C., 48 hours. The method, then:
as §1, §7, §3, §8, §9, §5, §6
Compound `CC(C)(C)c1ccc(-n2nnnc2SCSC#N)cc1` [IX, 1-(tertiary-Butylphenyl)-5-thiomethylthiocyanato-1H-tetrazole] yielded an MIC of 25 µg/mL (≈ 81.9 µM).

The same assay, now with this note: nutrient agar pH 8.2, 30° C., 48 hours.
The compound `CC(C)(C)c1ccc(-n2nnnc2SCSC#N)cc1` [IX, 1-(tertiary-Butylphenyl)-5-thiomethylthiocyanato-1H-tetrazole] showed an MIC of 50 µg/mL (≈ 164 µM).

A further assay has as its system Klebsiella pneumoniae (Kp). Described as above. Type of assay: cell-based, Klebsiella pneumoniae ATCC 8308. To be noted: nutrient agar pH 6.8, 30° C., 48 hours. The method, then:
as §1, §7, §3, §8, §9, §5, §6
Compound `CC(C)(C)c1ccc(-n2nnnc2SCSC#N)cc1` [IX, 1-(tertiary-Butylphenyl)-5-thiomethylthiocyanato-1H-tetrazole] had an MIC of 250 µg/mL (≈ 819 µM).

Still in this assay, the particulars now being: nutrient agar pH 8.2, 30° C., 48 hours.
`CC(C)(C)c1ccc(-n2nnnc2SCSC#N)cc1` [IX, 1-(tertiary-Butylphenyl)-5-thiomethylthiocyanato-1H-tetrazole]: the MIC turned out to be 100 µg/mL (≈ 327 µM).

In the next assay the test system is Saccharomyces cerevisiae (Sc). In words: Minimum inhibitory concentration (MIC), yeast/fungi in malt yeast agar. It counts as cell-based, Saccharomyces cerevisiae ATCC 4105. To be noted: 30° C., 48 hours for yeast. The method, then:
as §1, §2, §3, §4, §5, §6
Compound `CC(C)(C)c1ccc(-n2nnnc2SCSC#N)cc1` [IX, 1-(tertiary-Butylphenyl)-5-thiomethylthiocyanato-1H-tetrazole] came in with an MIC of 10 µg/mL (≈ 32.7 µM).

The test system of another assay is Aspergillus niger (An). Described as above. It counts as cell-based, Aspergillus niger ATCC 16404. To be noted: 30° C., 72 hours for fungi. The method, then: as §1, §2, §3, §4, §5, §6
For `CC(C)(C)c1ccc(-n2nnnc2SCSC#N)cc1` [IX, 1-(tertiary-Butylphenyl)-5-thiomethylthiocyanato-1H-tetrazole], the minimal inhibitory concentration (MIC) stood at 5 µg/mL (≈ 16.4 µM).
